Values quoted from earlier work as cited in US11992527B2, “Extracellular vesicles for vaccine delivery” (LONZA SALES AG, priority 2019, dated 2024).

What was measured:
[1] = tested on: BALF collagen and protein; macrophage and lymphocyte infiltration induced by bleomycin
[2] = tested on: human A2058 melanoma cells; details: in vitro, read-out: IC50, inhibition of LPA-1-induced chemotaxis
[3] = tested on: LPA-induced histamine release; details: in mice
mouse LPA-1/CHO cells = details: in vitro, read-out: IC50, inhibition of LPA-1-induced chemotaxis
[4] = in vivo
[5] = Phase 2 study (Palmer 2018)

IC50 [2] [nM] | oral bioavailability [4] | SMILES | ED50, reduction of BALF collagen and protein ([1]; in lungs) [mg/kg] | macrophage and lymphocyte infiltration induced by bleomycin ([1]; in mice) | ED50, block of LPA-induced histamine release [3] [mg/kg] | IC50 (mouse LPA-1/CHO cells) [nM] | toxicity that led to early termination of the Phase 2 study [5]
230 | orally bioavailable | Cc1noc(-c2ccc(-c3ccc(CC(=O)O)cc3)cc2)c1NC(=O)O[C@H](C)c1ccccc1 [AM095, 1,1′-Biphenyl]-4-acetic acid, 4′-[3-methyl-4-[[[(1R)-1-phenylethoxy]carbonyl]amino]-5-isoxazolyl[ ]-] | 10 | decrease both macrophage and lymphocyte infiltration | 8.3 | 780 | 
 |  | Cc1noc(-c2ccc(-c3ccc(C4(C(=O)O)CC4)cc3)cc2)c1NC(=O)O[C@H](C)c1ccccc1 [AM152, Cyclopropanecarboxylic acid, 1-[4′-[3-methyl-4-[[[(1R)-1-phenylethoxy]carbonyl]amino]-5-isoxazolyl][1,1′-biphenyl]-4-yl]-] |  |  |  |  | gall bladder toxicity and early signs of liver toxicity
